Legend:
mGlu2 = mGlu2 (Homo sapiens, UniProt Q14416); test: Selectivity versus additional mGlus; type: cell-based
mGlu4 = mGlu4 (Homo sapiens, UniProt Q14833); test: Selectivity versus additional mGlus; type: cell-based
mGlu8 = mGlu8 (Homo sapiens, UniProt O00222); test: Selectivity versus additional mGlus; type: cell-based
mGlu3 = mGlu3 (Homo sapiens, UniProt Q14832); test: Selectivity versus additional mGlus; type: cell-based
mGlu7 = mGlu7 (Homo sapiens, UniProt Q14831); test: Selectivity versus additional mGlus; type: cell-based
Chain of mGlu7 (Q14831 35-915): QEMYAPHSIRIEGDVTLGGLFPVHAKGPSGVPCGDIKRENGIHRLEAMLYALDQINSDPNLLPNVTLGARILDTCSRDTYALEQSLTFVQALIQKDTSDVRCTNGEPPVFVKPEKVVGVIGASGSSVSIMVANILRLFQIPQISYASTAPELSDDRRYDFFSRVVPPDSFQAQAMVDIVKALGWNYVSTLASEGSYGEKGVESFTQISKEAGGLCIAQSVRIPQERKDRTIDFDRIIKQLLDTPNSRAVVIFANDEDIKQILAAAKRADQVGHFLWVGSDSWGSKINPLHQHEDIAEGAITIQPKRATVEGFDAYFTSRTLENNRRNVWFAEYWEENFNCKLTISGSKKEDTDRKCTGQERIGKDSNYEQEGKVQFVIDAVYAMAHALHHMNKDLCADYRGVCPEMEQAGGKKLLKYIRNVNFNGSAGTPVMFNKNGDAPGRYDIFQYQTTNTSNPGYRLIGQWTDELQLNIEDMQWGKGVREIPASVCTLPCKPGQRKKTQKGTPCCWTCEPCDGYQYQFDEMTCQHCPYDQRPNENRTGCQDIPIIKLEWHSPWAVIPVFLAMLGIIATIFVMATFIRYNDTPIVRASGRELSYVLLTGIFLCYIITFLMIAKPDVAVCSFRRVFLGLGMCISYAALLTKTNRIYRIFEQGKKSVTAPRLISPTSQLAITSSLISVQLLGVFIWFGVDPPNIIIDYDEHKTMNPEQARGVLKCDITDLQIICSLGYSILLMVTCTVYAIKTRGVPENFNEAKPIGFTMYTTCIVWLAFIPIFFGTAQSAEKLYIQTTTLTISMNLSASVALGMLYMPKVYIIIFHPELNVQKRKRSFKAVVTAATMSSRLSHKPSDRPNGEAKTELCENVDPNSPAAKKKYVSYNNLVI

rat mGlu5 = rat mGlu5 (Rattus norvegicus, UniProt P31424); test: Calcium mobilization mGlu5 assay; type: cell-based; conditions: for fold reduction of mGlu5 potency, secondary amine to ether: 26 relative to 13, 29 relative to 4
Chain of rat mGlu5 (P31424 21-1203): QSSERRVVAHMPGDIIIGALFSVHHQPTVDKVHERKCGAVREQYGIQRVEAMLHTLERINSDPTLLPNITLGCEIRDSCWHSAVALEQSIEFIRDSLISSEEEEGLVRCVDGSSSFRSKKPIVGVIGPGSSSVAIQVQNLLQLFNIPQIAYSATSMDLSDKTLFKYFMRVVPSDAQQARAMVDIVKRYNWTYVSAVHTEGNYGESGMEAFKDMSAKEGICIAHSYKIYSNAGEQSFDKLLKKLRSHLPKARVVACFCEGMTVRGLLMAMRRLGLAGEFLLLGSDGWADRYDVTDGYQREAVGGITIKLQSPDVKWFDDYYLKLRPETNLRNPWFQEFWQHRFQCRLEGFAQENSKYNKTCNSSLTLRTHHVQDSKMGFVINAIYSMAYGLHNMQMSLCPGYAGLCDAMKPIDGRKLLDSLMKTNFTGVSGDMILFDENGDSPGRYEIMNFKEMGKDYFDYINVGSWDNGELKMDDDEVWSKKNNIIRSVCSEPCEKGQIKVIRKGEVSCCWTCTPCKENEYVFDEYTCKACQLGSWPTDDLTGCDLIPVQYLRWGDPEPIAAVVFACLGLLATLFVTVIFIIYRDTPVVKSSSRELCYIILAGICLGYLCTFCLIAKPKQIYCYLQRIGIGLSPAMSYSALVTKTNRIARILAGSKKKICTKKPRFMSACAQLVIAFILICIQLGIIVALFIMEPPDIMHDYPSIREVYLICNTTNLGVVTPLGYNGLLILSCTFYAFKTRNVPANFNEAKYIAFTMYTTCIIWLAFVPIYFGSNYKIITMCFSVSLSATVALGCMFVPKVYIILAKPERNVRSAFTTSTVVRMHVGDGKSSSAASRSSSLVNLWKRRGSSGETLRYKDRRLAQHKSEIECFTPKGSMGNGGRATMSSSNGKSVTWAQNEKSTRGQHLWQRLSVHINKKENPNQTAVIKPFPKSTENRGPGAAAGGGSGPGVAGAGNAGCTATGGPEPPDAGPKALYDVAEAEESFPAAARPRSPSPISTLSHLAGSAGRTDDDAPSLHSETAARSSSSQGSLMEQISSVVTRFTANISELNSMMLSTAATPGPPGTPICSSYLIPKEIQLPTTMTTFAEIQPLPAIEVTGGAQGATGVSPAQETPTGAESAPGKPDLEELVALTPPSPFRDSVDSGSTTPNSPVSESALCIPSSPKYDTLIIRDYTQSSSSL

EGFR = conditions: read-out: EGFR autophosphorylation IC50; A431 cells; cited from earlier work

Chain of mGlu8 (O00222 34-908): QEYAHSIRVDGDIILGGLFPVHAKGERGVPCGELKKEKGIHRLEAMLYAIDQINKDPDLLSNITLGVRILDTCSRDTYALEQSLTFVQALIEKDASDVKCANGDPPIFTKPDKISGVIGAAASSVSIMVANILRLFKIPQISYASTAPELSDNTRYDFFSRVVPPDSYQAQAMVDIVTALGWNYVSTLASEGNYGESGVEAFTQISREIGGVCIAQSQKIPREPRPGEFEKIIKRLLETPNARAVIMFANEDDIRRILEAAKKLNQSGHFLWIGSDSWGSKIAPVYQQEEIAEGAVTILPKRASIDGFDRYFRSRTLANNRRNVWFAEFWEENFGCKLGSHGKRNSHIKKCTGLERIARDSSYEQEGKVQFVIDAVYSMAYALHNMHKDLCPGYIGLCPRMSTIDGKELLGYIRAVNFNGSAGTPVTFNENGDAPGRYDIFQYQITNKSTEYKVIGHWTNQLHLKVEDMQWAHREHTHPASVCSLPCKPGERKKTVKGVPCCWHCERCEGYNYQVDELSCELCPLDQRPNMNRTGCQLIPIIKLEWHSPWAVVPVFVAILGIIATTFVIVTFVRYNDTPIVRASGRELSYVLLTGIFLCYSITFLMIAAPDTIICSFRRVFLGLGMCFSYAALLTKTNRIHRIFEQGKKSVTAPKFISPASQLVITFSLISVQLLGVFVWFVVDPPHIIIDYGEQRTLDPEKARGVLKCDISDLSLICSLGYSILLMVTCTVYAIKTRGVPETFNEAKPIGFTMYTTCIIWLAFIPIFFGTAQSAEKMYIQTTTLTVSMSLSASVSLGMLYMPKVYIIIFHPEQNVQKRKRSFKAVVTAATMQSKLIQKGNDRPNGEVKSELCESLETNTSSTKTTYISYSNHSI
Chain of mGlu4 (Q14833 33-912): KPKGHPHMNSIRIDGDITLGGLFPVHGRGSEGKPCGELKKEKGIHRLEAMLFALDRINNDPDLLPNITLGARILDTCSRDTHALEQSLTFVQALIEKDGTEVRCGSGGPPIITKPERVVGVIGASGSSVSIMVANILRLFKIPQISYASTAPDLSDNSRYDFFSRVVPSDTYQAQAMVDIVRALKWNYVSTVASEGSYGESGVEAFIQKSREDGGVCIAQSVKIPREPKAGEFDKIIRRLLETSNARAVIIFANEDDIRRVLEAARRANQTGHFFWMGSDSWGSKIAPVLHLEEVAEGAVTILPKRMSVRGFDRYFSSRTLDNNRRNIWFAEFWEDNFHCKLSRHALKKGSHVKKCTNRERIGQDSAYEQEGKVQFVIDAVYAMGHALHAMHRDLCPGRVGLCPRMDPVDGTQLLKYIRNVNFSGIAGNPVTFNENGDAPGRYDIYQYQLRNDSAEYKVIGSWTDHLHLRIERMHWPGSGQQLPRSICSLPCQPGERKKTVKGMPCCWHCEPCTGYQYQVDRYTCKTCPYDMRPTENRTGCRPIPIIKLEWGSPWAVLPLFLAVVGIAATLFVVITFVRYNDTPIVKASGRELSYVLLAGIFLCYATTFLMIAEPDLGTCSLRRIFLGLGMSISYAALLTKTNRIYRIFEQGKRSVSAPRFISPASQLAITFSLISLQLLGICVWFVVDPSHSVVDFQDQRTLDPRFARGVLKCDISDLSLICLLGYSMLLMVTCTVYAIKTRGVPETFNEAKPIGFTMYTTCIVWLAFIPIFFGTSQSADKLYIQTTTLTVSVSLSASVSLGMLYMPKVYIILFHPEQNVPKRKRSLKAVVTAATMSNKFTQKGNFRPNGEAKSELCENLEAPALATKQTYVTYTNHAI
Chain of mGlu3 (Q14832 23-879): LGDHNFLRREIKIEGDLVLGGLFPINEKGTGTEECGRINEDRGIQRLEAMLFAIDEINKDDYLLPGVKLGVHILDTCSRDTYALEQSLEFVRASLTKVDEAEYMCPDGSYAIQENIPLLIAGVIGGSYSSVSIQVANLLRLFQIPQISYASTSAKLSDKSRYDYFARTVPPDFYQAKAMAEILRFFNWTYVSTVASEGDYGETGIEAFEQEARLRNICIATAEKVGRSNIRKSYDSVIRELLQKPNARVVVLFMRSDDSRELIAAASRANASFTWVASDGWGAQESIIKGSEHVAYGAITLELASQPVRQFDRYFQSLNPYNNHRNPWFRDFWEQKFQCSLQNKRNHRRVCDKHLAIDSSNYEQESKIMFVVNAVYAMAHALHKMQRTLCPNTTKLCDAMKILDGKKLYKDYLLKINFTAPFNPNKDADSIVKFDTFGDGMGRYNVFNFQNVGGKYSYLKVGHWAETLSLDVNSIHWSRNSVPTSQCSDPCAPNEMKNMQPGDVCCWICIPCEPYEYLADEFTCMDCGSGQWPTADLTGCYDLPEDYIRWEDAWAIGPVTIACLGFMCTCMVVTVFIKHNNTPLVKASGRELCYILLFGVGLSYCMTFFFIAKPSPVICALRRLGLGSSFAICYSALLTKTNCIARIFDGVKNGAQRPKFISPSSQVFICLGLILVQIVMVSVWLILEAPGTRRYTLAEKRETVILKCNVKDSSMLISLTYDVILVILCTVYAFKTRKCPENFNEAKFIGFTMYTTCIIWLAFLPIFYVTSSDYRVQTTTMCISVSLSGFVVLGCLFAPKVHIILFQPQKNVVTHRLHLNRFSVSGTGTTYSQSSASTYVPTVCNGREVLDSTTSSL

activity against mGlu2 (mGlu2)	activity against mGlu4 (mGlu4)	activity against mGlu8 (mGlu8)	activity against mGlu3 (mGlu3)	activity against mGlu7 (mGlu7)	SMILES	also measured
inactive	inactive	inactive	inactive	inactive	Clc1cccc(Nc2ncnc3ccc(Br)cc23)c1 [Compound 1]	–
–	–	–	–	–	Brc1cccc(Oc2ncnc3ccc(Br)cc23)c1 [Compound 29]	fold reduction of mGlu5 potency, secondary amine to ether (rat mGlu5): more than 50 fold
–	–	–	–	–	Brc1cccc(Nc2nccc3ccc(Br)cc23)c1 [Compound 15]	fold reduction of mGlu5 activity relative to 4 (rat mGlu5; relative to 6-bromoquinazoline comparator 4): approximately 25 fold
inactive	inactive	inactive	inactive	inactive	Clc1ccc2ncnc(Nc3cccc(Br)c3)c2c1 [Compound 13]	–
inactive	inactive	inactive	inactive	inactive	Fc1ccc2ncnc(Nc3cccc(Br)c3)c2c1 [Compound 32]	–
–	–	–	–	–	Clc1cccc(Nc2ncnc3ccc(Cl)cc23)c1 [Compound 9]	IC50 (EGFR): 2.7 µM
–	–	–	–	–	CCc1cccc(Nc2ncnc3ccc(F)cc23)c1 [Compound 36]	% Glu max (rat mGlu5; amplitude of response in the presence of 30 μM test compound as a percentage of maximal response (100 μM glutamate), average of n ≥ 3): weak potentiator
–	–	–	–	–	FC(F)(F)c1cccc(Nc2ncnc3ccc(Br)cc23)c1 [Compound 6]	fold less potent at mGlu5 than 5 (rat mGlu5; relative to 3-methylaniline 5): 7 fold
–	–	–	–	–	Clc1ccc2ncnc(Oc3cccc(Br)c3)c2c1 [Compound 26]	fold reduction of mGlu5 potency, secondary amine to ether (rat mGlu5): more than 50 fold

From article PMC2801349 (Bioorganic & medicinal chemistry letters, 2009)
